In PubChem BioAssay (NCI):
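Growth conditions: 96-well plates. Treatment: test compound, 48 hours, 5 concentrations. Analysis: linear interpolation between bracketing concentrations; unreached endpoints set to highest concentration. GI50 is the concentration that inhibits growth by half. TGI marks complete inhibition of growth.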

Assays:
Assay in all cases: inhibition of tumour cell growth, NCI panel, 48 h
CAKI-1 renal = test system: CAKI-1 renal
NCI-H460 lung = test system: NCI-H460 lung
SF-295 CNS = test system: SF-295 CNS
SR leukemia = test system: SR leukemia
HL-60(TB) leukemia = test system: HL-60(TB) leukemia
LOX IMVI melanoma = test system: LOX IMVI melanoma
HCC-2998 colon = test system: HCC-2998 colon
RXF 393 renal = test system: RXF 393 renal
SF-268 CNS = test system: SF-268 CNS
PC-3 prostate = test system: PC-3 prostate

Row | Structure (SMILES) | TGI (CAKI-1 renal) [µM] | TGI (NCI-H460 lung) [µM] | TGI (SF-295 CNS) [µM] | TGI (SR leukemia) [µM] | TGI (HL-60(TB) leukemia) [µM] | TGI (LOX IMVI melanoma) [µM] | TGI (HCC-2998 colon) [µM] | TGI (RXF 393 renal) [µM] | TGI (SF-268 CNS) [µM] | TGI (PC-3 prostate) [µM] | GI50 (HL-60(TB) leukemia) [µM] | GI50 (LOX IMVI melanoma) [µM]
1 | CCN(CC)CCCNc1ccc2nnn3c4ccc(O)cc4c(=O)c1c23 | 17 | 9.13 | 22.8 | 21.8 | 33.2 | 13.1 | 23.4 | 15 | 18.6 | 19.3 | – | –
2 | CSC(=NC1=NC(C(F)(F)F)(C(F)(F)F)N=C(c2ccccc2)O1)SC | 44.8 | > 100 | > 100 | 76.1 | 64 | 42.8 | 39.6 | 24.5 | > 100 | 38.9 | – | –
3 | CCOC(=O)C(Cc1ccccc1)(Cc1ccc(O)cn1)NC(=O)c1ccccc1 (configuration not stated) | 87 | 99.2 | > 100 | > 100 | 43.8 | 45.2 | > 100 | > 100 | 61.7 | 75.1 | – | –
4 | Cc1ccc(S(=O)(=O)N2CCN(CCN(C)CCN3CCN(S(=O)(=O)c4ccc(C)cc4)CC3)CC2)cc1 | 40.5 | 32.2 | 31.9 | 36.3 | 33.6 | 33 | 29.4 | 27.8 | 40.1 | 56 | – | –
5 | CCCCSc1n/c(=C\c2ccc(N(C)C)cc2)c2nnnn12 | > 100 | > 100 | > 100 | > 100 | > 100 | > 100 | > 100 | > 100 | > 100 | > 100 | – | –
6 | CC1(C)[C@@H]2C[C@H]1c1cnc(-c3ccccn3)cc1C2[C@@H]1c2cc(-c3ccccn3)ncc2[C@@H]2C[C@H]1C2(C)C (some centres not stated) | > 100 | > 100 | > 100 | > 100 | > 100 | > 100 | > 100 | > 100 | > 100 | > 100 | – | –
7 | CCCCCCCCCCCCCCCCNc1nc(=O)n(C2CC(O)C(CO)O2)cc1F (configuration not stated) | 23.3 | 27.3 | 30.1 | 26.3 | 27.7 | 24.1 | 14.2 | 28.4 | 22.3 | 21.2 | – | –
8 | CC(C)(C)OC(=O)N1C(OP(=O)(Oc2ccccc2)Oc2ccccc2)=COc2cccnc21 | > 100 | 94 | > 100 | 82.9 | 36.6 | 85.3 | > 100 | > 100 | > 100 | > 100 | – | –
9 | CCOC(=O)C1=C(C)NC(=S)NC1c1cccc(O)c1 (configuration not stated) | > 100 | > 100 | 93.6 | > 95.6 | 77.5 | > 100 | > 90.4 | 65.7 | > 100 | > 89.6 | – | –
10 | N#CCc1nc(C#N)c(N)o1 | > 100 | > 100 | > 100 | > 100 | > 100 | > 100 | > 100 | > 100 | > 100 | > 100 | > 100 | > 100
